The values below come from patent publication US20240226158A9, “ADMINISTRATION OF TUMOR INFILTRATING LYMPHOCYTES WITH MEMBRANE BOUND INTERLEUKIN 15 TO TREAT CANCER” (OBSIDIAN THERAPEUTICS, INC., priority 2021, published 2024).

For this assay, the system named is IL15 signaling pathway (pSTAT5, pS6). Put plainly: phospho-flow cytometry assay of IL15 expression and signaling. To be noted: regulated mbIL15 TILs, 18 hours, 4 donors. The class given is cell-based, human. The procedure: Pre-REP TILs were prepared similarly to the methods of Example 1-3 and 9, and unengineered and mbIL15 TIL generated accordingly as described in Examples 1-3 and 9. Engagement of the IL15 signaling pathway results in phosphorylation of signal transducers downstream, including the transcription factor protein STATS and ribosomal protein S6. […] Next, the regulated mbIL15 TILs were regulated for 18 hours in the presence of a range of concentrations of ACZ including 0.1, 1, 2.5, 5, 10, 25, 100 μM, as well as vehicle control. The regulated mbIL15 TILs were then collected for staining and FACS analysis.
Briefly, cells were stained using antibodies for CD3, CD4, CD8, IL15 and a Live/Dead marker. Then cells were fixed in 2% formaldehyde (BD Cytofix) and permeabilized using a methanol-based buffer (BD Phospho Perm III Buffer) before staining with antibodies specific for phosphorylated STATS (Biolegend) and S6 (Cell Signaling Technology). Cells were acquired on the BD Symphony and analyzed using FlowJo software.
In order to compare different strategies for IL15 expression, TILs were utilized that constitutively express mbIL15 and regulated mbIL15 TILs. Cryopreserved unengineered TILs, constitutive mbIL15 TILs, and regulated mbIL15 TILs, from three human donors were thawed and then rested in ACZ-free media for 24 hours. […] Cells were acquired on the BD Fortessa and analyzed using FlowJo software.
(In general: Flow cytometry measures light scatter and fluorescence of single cells or particles in a stream.)

On to `CC(=O)Nc1nnc(S(N)(=O)=O)s1` [ACZ, acetazolamide], for which the “relationship between ACZ and IL15 expression and signaling (pSTAT5, pS6)” value is on record as “dose-dependent relationship”.
